Results on three compounds are retold here after patent US5834453A, “Methods for the manufacture and use of antimicrobial sterol conjugates” (Lehigh University, priority 1997, dated 1998).

Converted amounts (≈) assume the structure as drawn. “Also recorded” adds a separate entry of the source. Like-named read-outs stand apart in the source and are kept apart here.

Data set [1] is described as follows: Hemolytic activity, minimal hemolytic concentration (MHC).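 On MCC: MCC here is the minimal hemolytic concentration (MHC).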 Type of data set: cell-based, sheep. As for the experimental part: (§1) Hemolytic activity of the squalamine mimics according to the present invention were also studied by incubating sheep red blood cells for 24 hours at 37° C. in saline (final concentration of 0.5%) with or without respective concentrations of the squalamine mimics. The minimal hemolytic concentration (MHC) was determined as the lowest concentration of a mimic that raised visible hemolysis.

The test system of data set [2] is sheep red blood cells. The data set is described as above. Type of data set: cell-based. As for the experimental part: as §1
The test system of data set [3] is C. neoformans (M68979). The data set can be described thus: MIC, micro-broth dilution. It is filed as cell-based. The settings on record: Cryptococcus neoformans, 24 h, read-out: ANTIMICROBIAL ACTIVITY (MIC). As for the experimental part:
(§2) The antimicrobial activity of the compounds according to the present invention were compared with the results obtained for squalamine as reported in Proc. Nat. Acad. Sci. USA 90:1354 (1993), supra, the disclosure of which is incorporated in toto herein. The data reported in the following table is the minimum inhibitory concentration (MIC) required for complete inhibition of microbial growth. The MIC was determined utilizing known micro-broth dilution methods in which inocula of 10^6 /ml of the test organism were incubated in 0.5× trypticase soy broth at 35° C. for 24 hours. MIC's were also tested under various pH conditions, with calcium chloride or magnesium chloride, or with immobilized horse serum.
(§3) The numbers in parentheses contained in the table correspond to accession numbers with the American Type Culture Collection (reference strains were either obtained from the American Type Culture Collection or from the Microbiology Laboratory at Memorial Sloan-Kettering Cancer Center; Bacterial strains were maintained on Columbia 5% sheep blood agar plates, and fungi were maintained on Sabouraud Dextrose agar plates).

Data set [4] deals with A. fumigatus (H29709). The data set can be described thus: MIC, micro-broth dilution. It is filed as cell-based. The settings on record: Aspergillus fumigatus, 35° C., 24 hours, read-out: ANTIMICROBIAL ACTIVITY (MIC). As for the experimental part: as §2, §3
(In general: Dilution methods test growth across graded concentrations, often in twofold steps.)

The subject of data set [5] is S. pyrogenes (19615). The data set can be described thus: MIC, micro-broth dilution. It is filed as cell-based. The settings on record: 24 h, read-out: ANTIMICROBIAL ACTIVITY (MIC). As for the experimental part: as §2, §3
The subject of data set [6] is E. cloacae (13047). The data set can be described thus: MIC, micro-broth dilution. The settings on record: Enterobacter cloacae, 35° C., 24 hours, read-out: ANTIMICROBIAL ACTIVITY (MIC). It is filed as cell-based. As for the experimental part: as §2, §3
In data set [7] the test system is S. epidermidis (12228). The data set can be described thus: MIC, micro-broth dilution. Type of data set: cell-based. The settings on record: Staphylococcus epidermidis, 35° C., 24 hours, read-out: ANTIMICROBIAL ACTIVITY (MIC). As for the experimental part:
as §2, §3

For data set [8], the system named is E. faecium (T6480-9). The data set can be described thus: MIC, micro-broth dilution. It is filed as cell-based. The settings on record: Enterococcus faecium, 35° C., 24 hours, read-out: ANTIMICROBIAL ACTIVITY (MIC). As for the experimental part: as §2, §3
Data set [9] has as its system S. pneumoniae (6305). The data set can be described thus: MIC, micro-broth dilution. Type of data set: cell-based. Particulars: Streptococcus pneumoniae, 35° C., 24 hours, read-out: ANTIMICROBIAL ACTIVITY (MIC). As for the experimental part: as §2, §3
Data set [10] concerns C. albicans (90028). The data set can be described thus: MIC, micro-broth dilution. It is filed as cell-based. The settings on record: Candida albicans, 35° C., 24 hours, read-out: ANTIMICROBIAL ACTIVITY (MIC). As for the experimental part:
as §2, §3

The subject of data set [11] is K. pneumoniae (13883). The data set can be described thus: MIC, micro-broth dilution. It is filed as cell-based. The settings on record: Klebsiella pneumoniae, 24 h, read-out: ANTIMICROBIAL ACTIVITY (MIC). As for the experimental part: as §2, §3
Data set [12] relates to P. aeruginosa (10145). The data set can be described thus: MIC, micro-broth dilution. Particulars: Pseudomonas aeruginosa, 35° C., 24 hours, read-out: ANTIMICROBIAL ACTIVITY (MIC). It is filed as cell-based. As for the experimental part: as §2, §3
For data set [13], the system named is C. neoformans (90012). The data set can be described thus: MIC, micro-broth dilution. Particulars: Cryptococcus neoformans, 24 h, read-out: ANTIMICROBIAL ACTIVITY (MIC). Type of data set: cell-based. As for the experimental part: as §2, §3
For data set [14], the system named is P. aeruginosa (2853). The data set can be described thus: MIC, micro-broth dilution. Type of data set: cell-based. The settings on record: Pseudomonas aeruginosa, 24 h, read-out: ANTIMICROBIAL ACTIVITY (MIC). As for the experimental part: as §2, §3
Data set [15] has as its system S. marcescens (13880). The data set can be described thus: MIC, micro-broth dilution. Type of data set: cell-based. Particulars: for MIC: Serratia marcescens, 24 h, read-out: ANTIMICROBIAL ACTIVITY (MIC). As for the experimental part:
as §2, §3

For data set [16], the system named is E. coli (25922). The data set can be described thus: MIC, micro-broth dilution. Type of data set: cell-based. Particulars: Escherichia coli, 35° C., 24 hours, read-out: ANTIMICROBIAL ACTIVITY (MIC). As for the experimental part: as §2, §3
The subject of data set [17] is S. aureus (29213). The data set can be described thus: MIC, micro-broth dilution. The settings on record: Staphylococcus aureus, read-out: ANTIMICROBIAL ACTIVITY (MIC). It is filed as cell-based. As for the experimental part:
as §2, §3

In data set [18] the test system is P. vulgaris (13315). The data set can be described thus: MIC, micro-broth dilution. Type of data set: cell-based. Particulars: Proteus vulgaris, 35° C., 24 hours, read-out: ANTIMICROBIAL ACTIVITY (MIC). As for the experimental part:
as §2, §3

The subject of data set [19] is E. faecalis (29212). The data set can be described thus: MIC, micro-broth dilution. It is filed as cell-based. The settings on record: Enterococcus faecalis, 35° C., 24 hours, read-out: ANTIMICROBIAL ACTIVITY (MIC). As for the experimental part: as §2, §3
Data set [20] has as its system A. fumigatus (H1120). The data set can be described thus: MIC, micro-broth dilution. It is filed as cell-based. The settings on record: Aspergillus fumigatus, 35° C., 24 hours, read-out: ANTIMICROBIAL ACTIVITY (MIC). As for the experimental part: as §2, §3
The subject of data set [21] is S. agalactiae (13813). The data set can be described thus: MIC, micro-broth dilution. Particulars: Streptococcus agalactiae, 35° C., 24 hours, read-out: ANTIMICROBIAL ACTIVITY (MIC). It is filed as cell-based. As for the experimental part:
as §2, §3

Data set [22] concerns S. aureus (H20809). The data set can be described thus: MIC, micro-broth dilution. It is filed as cell-based. Particulars: Staphylococcus aureus, 24 h, read-out: ANTIMICROBIAL ACTIVITY (MIC). As for the experimental part: as §2, §3
Data set [23] concerns S. aureus (25923). The data set can be described thus: MIC, micro-broth dilution. It is filed as cell-based. The settings on record: Staphylococcus aureus, 35° C., 24 hours, read-out: ANTIMICROBIAL ACTIVITY (MIC). As for the experimental part:
as §2, §3

Data set [24] has as its system various groups of microorganisms. The data set can be described thus: Antimicrobial activity (MIC), all microorganisms tested. Type of data set: cell-based. As for the experimental part:
as §2, §3

With `C[C@H](CCCNCCCNCCCCNCCCN)[C@H]1CC[C@H]2[C@@H]3CC[C@@H]4C[C@H](O)CC[C@]4(C)[C@H]3C[C@H](O)[C@]12C` [SM-7H], in [1] (sheep, red blood cells), the MCC at 24 h was determined as 50 µg/mL. Also, the “hemolytic activity (in words)” value in data set [2] is “unwanted hemolytic activity”. Further, the MIC in data set [3] came to 0.39 µg/mL (≈ 0.693 µM); in data set [4], 12.5 µg/mL (≈ 22.2 µM); in [5], 0.39 µg/mL (≈ 0.693 µM); in [6], 12.5 µg/mL (≈ 22.2 µM); in data set [7], 0.39 µg/mL (≈ 0.693 µM); in data set [8], 6.25 µg/mL (≈ 11.1 µM). Also, the MIC in data set [9] was found to be 1.56 µg/mL (≈ 2.77 µM); in data set [10] it was 6.25 µg/mL (≈ 11.1 µM); in data set [11], 12.5 µg/mL (≈ 22.2 µM); in data set [12], 3.13 µg/mL (≈ 5.56 µM); in [13], 0.39 µg/mL (≈ 0.693 µM); in data set [14], 3.13 µg/mL (≈ 5.56 µM). The MIC in data set [15] came out at 12.5 µg/mL (≈ 22.2 µM); in [16], 6.25 µg/mL (≈ 11.1 µM); in [17] (S. aureus (29213), 35° C., 24 hours), 0.78 µg/mL (≈ 1.39 µM); in data set [18] it was 6.25 µg/mL (≈ 11.1 µM); in data set [19], 6.25 µg/mL (≈ 11.1 µM); in [20], 12.5 µg/mL (≈ 22.2 µM). For the same compound, the MIC in data set [21] came out at 0.78 µg/mL (≈ 1.39 µM). The “activity against S. marcescens” value in data set [15] (in words) is “found even against S. marcescens; also recorded: effective against S. marcescens”.

Consider `C[C@H](CCC(=O)NCCCNCCCCNCCCN)[C@H]1CC[C@H]2[C@@H]3[C@H](O)C[C@@H]4C[C@H](O)CC[C@]4(C)[C@H]3C[C@H](O)[C@]12C` [SM-13, cholic acid-spermine conjugate], for which the minimal hemolytic concentration (MHC) at 24 h in data set [1] (sheep red blood cells, 24 hours at 37° C. in saline) was over 100 µg/mL. Moreover, the MIC in data set [3] was 3.13 µg/mL (≈ 5.28 µM); in [5] it was 3.13 µg/mL (≈ 5.28 µM); in data set [6], over 100 µg/mL; in data set [7], 3.13 µg/mL (≈ 5.28 µM); in data set [8], 50 µg/mL (≈ 84.3 µM); in [9], 25 µg/mL (≈ 42.2 µM). Moreover, the MIC in data set [10] was 12.5 µg/mL (≈ 21.1 µM); in data set [11], over 100 µg/mL; in data set [12] it was 25 µg/mL (≈ 42.2 µM); in [14], 25 µg/mL (≈ 42.2 µM); in data set [15], over 100 µg/mL; in data set [16], 25 µg/mL (≈ 42.2 µM). The MIC in [17] (24 h) was 12.5 µg/mL (≈ 21.1 µM); in data set [22] it was 6.25 µg/mL (≈ 10.5 µM); in data set [18] it was over 100 µg/mL; in [19], 50 µg/mL (≈ 84.3 µM); in data set [23], 6.25 µg/mL (≈ 10.5 µM); in data set [20] it was 25 µg/mL (≈ 42.2 µM). The MIC in data set [21] was 12.5 µg/mL (≈ 21.1 µM). Further, the “antimicrobial activity (in words)” value in data set [24] is “lesser activity; also recorded: more activity than SM-8, SM-14, and SM-22”.

In the case of `C[C@H](CCC(=O)NCCCNCCCCNCCCN)[C@H]1CC[C@H]2[C@@H]3[C@H](OS(=O)(=O)O)C[C@@H]4C[C@H](OS(=O)(=O)O)CC[C@]4(C)[C@H]3C[C@H](OS(=O)(=O)O)[C@]12C` [SM-14], the MIC in [24] (24 h, read-out: MICs against the various groups of microorganisms tested) was over 100 µg/mL.
